Assay results reported in ChEMBL document CHEMBL1126162, “A steric and electrostatic comparison of three models for the agonist/antagonist binding site on the adenosine A1 receptor” (J Med Chem, 1992).
“And” between values parts separate entries of the source, which are not always exact repeats. Equal values may be shown once.

biological target: T1, Adenosine receptor A1 (Rattus norvegicus, UniProt P25099); test: Evaluated for binding affinity against Adenosine A1 receptor
T1 sequence (P25099 whole entry): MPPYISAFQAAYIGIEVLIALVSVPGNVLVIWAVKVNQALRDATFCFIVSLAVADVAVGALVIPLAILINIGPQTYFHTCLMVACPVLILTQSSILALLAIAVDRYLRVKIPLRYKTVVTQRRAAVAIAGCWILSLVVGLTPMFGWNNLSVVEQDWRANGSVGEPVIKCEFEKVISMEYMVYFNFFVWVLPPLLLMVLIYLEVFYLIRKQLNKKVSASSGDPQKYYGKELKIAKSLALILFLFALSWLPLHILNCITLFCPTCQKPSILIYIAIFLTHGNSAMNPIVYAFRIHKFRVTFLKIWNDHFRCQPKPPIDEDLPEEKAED

SMILES | IC50 | Ki [nM]
Cn1c(=O)c2nc(-c3cccc(F)c3)[nH]c2n(C)c1=O | – | 2.4
CCCn1c(=O)c2nc(Cc3ccccc3)[nH]c2n(CCC)c1=O | – | 891
CCCn1c(=O)c2[nH]c(-c3ccccc3)nc2n(CCC)c1=O | – | 11
Cc1ccc(-c2nc3c([nH]2)c(=O)n(C)c(=O)n3C)cc1 | – | 0.513
Cn1c(=O)c2[nH]c(-c3ccc(Cl)cc3)nc2n(C)c1=O | – | 0.646
Cn1c(=O)c2[nH]c(-c3ccc(F)cc3)nc2n(C)c1=O | – | 1.82
OC[C@H]1OC(n2cnc3c(NCC4CCCCC4)ncnc32)[C@H](O)[C@@H]1O (stereo partly specified) | 39.8 nM | –
COc1ccccc1Nc1ncnc2c1ncn2C1O[C@H](CO)[C@@H](O)[C@H]1O (stereo partly specified) | 85.1 nM | –
Cc1ccc(Nc2ncnc3c2ncn3C2O[C@H](CO)[C@@H](O)[C@H]2O)cc1 (stereo partly specified) | 4.9 nM | –
Cc1ccccc1Nc1ncnc2c1ncn2C1O[C@H](CO)[C@@H](O)[C@H]1O (stereo partly specified) | 8.91 nM | –
COc1cccc(Nc2ncnc3c2ncn3C2O[C@H](CO)[C@@H](O)[C@H]2O)c1 (stereo partly specified) | 46.8 nM | –
OC[C@H]1OC(n2cnc3c(Nc4ccccc4F)ncnc32)[C@H](O)[C@@H]1O (stereo partly specified) | 3.98 nM | –
OC[C@H]1OC(n2cnc3c(Nc4ccc(Cl)cc4)ncnc32)[C@H](O)[C@@H]1O (stereo partly specified) | 2.19 nM | –

More lines, now with the values ahead:

IC50 | Ki [nM] | SMILES
8.91 nM and 4.57 nM | – | COc1ccc(Nc2ncnc3c2ncn3[C@@H]2O[C@H](CO)[C@@H](O)[C@H]2O)cc1
– | 38.9 | CCCn1c(=O)c2[nH]c(CC3CCCCC3)nc2n(CCC)c1=O
2.09 nM | – | OC[C@H]1O[C@@H](n2cnc3c(NC4CC4)ncnc32)[C@H](O)[C@@H]1O
– | 5.37 | Cc1cccc(-c2nc3c([nH]2)c(=O)n(C)c(=O)n3C)c1
– | 6.76 | Cn1c(=O)c2[nH]c(-c3ccccc3F)nc2n(C)c1=O
– | 4.57 | CCCn1c(=O)c2nc(-c3ccc(OC)cc3)[nH]c2n(CCC)c1=O
– | 191 | COc1ccccc1-c1nc2c([nH]1)c(=O)n(C)c(=O)n2C
1 nM | – | OC[C@H]1OC(n2cnc3c(Nc4cccc(F)c4)ncnc32)[C@H](O)[C@@H]1O (stereo partly specified)
2 nM | – | OC[C@H]1OC(n2cnc3c(Nc4ccc(F)cc4)ncnc32)[C@H](O)[C@@H]1O (stereo partly specified)
1.2 nM | – | CCCc1ccccc1Nc1ncnc2c1ncn2C1O[C@H](CO)[C@@H](O)[C@H]1O (stereo partly specified)
26.9 nM | – | Cc1cccc(Nc2ncnc3c2ncn3C2O[C@H](CO)[C@@H](O)[C@H]2O)c1 (stereo partly specified)
52.5 nM | – | CCCc1ccccc1Nc1ncnc2c1ncn2C1OC(CO)[C@@H](O)[C@H]1O (single isomer, unassigned)
3.31 nM | – | OC[C@H]1O[C@@H](n2cnc3c(Nc4ccccc4)ncnc32)[C@H](O)[C@@H]1O [N6-PHENYLADENOSINE]
